Reference: patent US12552783B2, “Modulators of proteolysis and associated methods of use” (Arvinas Operations, Inc., priority 2018, dated 2026)

Target: KRas (Homo sapiens, UniProt P01116, G12C)
Assay: KRas degradation in SW1573 cells by Western blot, normalized to GAPDH (data of Table 14)
Assay type: cell-based
Conditions: SW1573 cells
Outline: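 SW1573 cells, homozygous for the KRas G12C mutation and maintained in DMEM with 10% FBS and 1% penicillin-streptomycin, were seeded in 12-well plates, allowed to attach overnight at 37° C. under 5% CO2, then serum-starved for 24 hours before compound exposure. KRas levels were measured by Western blot, normalized to GAPDH, and compared with DMSO controls to give percent degradation, DC50 and Dmax.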

Percent Degradation at Indicated Concentration (μM) (0.1 μM)	Percent Degradation at Indicated Concentration (μM) (0.3 μM)	Percent Degradation at Indicated Concentration (μM) (1 μM)	Percent Degradation at Indicated Concentration (μM) (3 μM)	Compound	Percent Degradation at Indicated Concentration (μM) (0.03 μM)	DC50 [nM]	Dmax [%]	Percent Degradation at Indicated Concentration (μM) (0.01 μM)
C (Percent Degradation: C ≤ 35)	C (Percent Degradation: C ≤ 35)	C (Percent Degradation: C ≤ 35)	–	C=CC(=O)N1CCN(c2nc(O[C@H](C)CN3CCC(OCCOCCOCCOCCOCCOc4ccc5c(c4)C(=O)N(C4CCC(=O)NC4=O)C5=O)CC3)nc3c2CCN(c2cc(O)cc4ccccc24)C3)CC1 (stereo partly drawn) [compound 420, 5-((14-((1-((R)-2-((4-(4-acryloylpiperazin-1-yl)-7-(3-hydroxynaphthalen-1-yl)-5,6,7,8-tetrahydropyrido[3,4-d]pylimidin-2-yl)oxy)propyl)piperidin-4-yl)oxy)-3,6,9,12-tetraoxatetradecyl)oxy)-2-(2,6-dioxopiperidin-3-yl)isoindoline-1,3-dione]	–	–	–	–
B (35 < B < 70)	A (A > 70)	A (A > 70)	–	C=CC(=O)N1CCN(c2nc(O[C@H](C)CN3CCN(CC4CCN(CC(=O)N[C@H](C(=O)N5C[C@H](O)C[C@H]5C(=O)N[C@@H](C)c5ccc(-c6scnc6C)cc5)C(C)(C)C)CC4)CC3)nc3c(F)c(-c4cc(O)cc5ccccc45)c(Cl)cc23)CC1 [compound 404, (2S,4R)-1-((2S)-2-(2-(4-((4-((2R)-2-((4-(4-acryloylpiperazin-1-yl)-6-chloro-8-fluoro-7-(3-hydroxynaphthalen-1-yl)quinazolin-2-yl)oxy)propyl)piperazin-1-yl)methyl)piperidin-1-yl)acetamido)-3,3-dimethylbutanoyl)-4-hydroxy-N-((S)-1-(4-(4-methylthiazol-5-yl)phenyl)ethyl)pyrrolidine-2-carboxamide]	–	–	–	–
C (Percent Degradation: C ≤ 35)	B (35 < B < 70)	B (35 < B < 70)	–	C=CC(=O)N1CCN(c2nc(O[C@H](C)CN3CCC(OCCOc4cc(-c5scnc5C)ccc4CNC(=O)[C@@H]4C[C@@H](O)CN4C(=O)[C@@H](c4cc(C)no4)C(C)C)CC3)nc3c2CCN(c2cc(O)cc4ccccc24)C3)CC1 [compound 436, (2S,4R)-N-(2-(2-((1-((R)-2-((4-(4-acryloylpiperazin-1-yl)-7-(3-hydroxynaphthalen-1-yl)-5,6,7,8-tetrahydropyrido[3,4-d]pyrimidin-2-yl)oxy)propyl)piperidin-4-yl)oxy)ethoxy)-4-(4-methylthiazol-5-yl)benzyl)-4-hydroxy-1-((R)-3-methyl-2-(3-methylisoxazol-5-yl)butanoyl)pyrrolidine-2-carboxamide]	–	–	–	–
C (Percent Degradation: C ≤ 35)	C (Percent Degradation: C ≤ 35)	C (Percent Degradation: C ≤ 35)	–	Cc1ncsc1-c1ccc([C@H](C)NC(=O)[C@@H]2C[C@@H](O)CN2C(=O)[C@@H](NC(=O)COCCOCCOC2CCN(C[C@@H](C)Oc3nc(N4CCN(C(=O)C(O)O)CC4)c4cc(Cl)c(-c5cc(O)cc6ccccc56)c(F)c4n3)CC2)C(C)(C)C)cc1 [compound 245, (2S,4R)-1-((2S)-2-(2-(2-(2-((1-((2R)-2-((6-chloro-4-(4-(2,2-dihydroxyacetyl)piperazin-1-yl)-8-fluoro-7-(3-hydroxynaphthalen-1-yl)quinazolin-2-yl)oxy)propyl)piperidin-4-yl)oxy)ethoxy)ethoxy)acetamido)-3,3-dimethylbutanoyl)-4-hydroxy-N-((S)-1-(4-(4-methylthiazol-5-yl)phenyl)ethyl)pyrrolidine-2-carboxamide]	–	–	–	–
C (Percent Degradation: C ≤ 35)	C (Percent Degradation: C ≤ 35)	C (Percent Degradation: C ≤ 35)	–	C=CC(=O)N1CCN(c2nc(O[C@H](C)CN3CCC(OCCOCCOCC(=O)N[C@H](C(=O)N4C[C@@H](O)C[C@H]4C(=O)N[C@@H](C)c4ccc(-c5scnc5C)cc4)C(C)(C)C)CC3)nc3c(F)c(-c4cc(O)cc5ccccc45)c(Cl)cc23)CC1 [compound 405, (2S,4S)-1-((2S)-2-(2-(2-(2-((1-((2R)-2-((4-(4-acryloylpiperazin-1-yl)-6-chloro-8-fluoro-7-(3-hydroxynaphthalen-1-yl)quinazolin-2-yl)oxy)propyl)piperidin-4-yl)oxy)ethoxy)ethoxy)acetamido)-3,3-dimethylbutanoyl)-4-hydroxy-N-((S)-1-(4-(4-methylthiazol-5-yl)phenyl)ethyl)pyrrolidine-2-carboxamide]	–	–	–	–
C (Percent Degradation: C ≤ 35)	C (Percent Degradation: C ≤ 35)	–	–	C=CC(=O)N1CCN(c2nc(O[C@H](C)CN3CCC(OCCOCCOc4cc([C@@H](C(=O)N5C[C@H](O)C[C@H]5C(=O)N[C@@H](C)c5ccc(-c6scnc6C)cc5)C(C)C)on4)CC3)nc3c(F)c(-c4cc(O)cc5ccccc45)c(Cl)cc23)CC1 [compound 526, (2S,4R)-1-((2S)-2-(3-(2-(2-((1-((2R)-2-((4-(4-acryloylpiperazin-1-yl)-6-chloro-8-fluoro-7-(3-hydroxynaphthalen-1-yl)quinazolin-2-yl)oxy)propyl)piperidin-4-yl)oxy)ethoxy)ethoxy)isoxazol-5-yl)-3-methylbutanoyl)-4-hydroxy-N-((S)-1-(4-(4-methylthiazol-5-yl)phenyl)ethyl)pyrrolidine-2-carboxamide]	C (Percent Degradation: C ≤ 35)	–	–	–
C (Percent Degradation: C ≤ 35)	C (Percent Degradation: C ≤ 35)	C (Percent Degradation: C ≤ 35)	–	C=CC(=O)N1CCN(c2nc(O[C@H](C)CN3CCC(OCCOCCOc4ccc5c(c4)C(=O)N(C4CCC(=O)NC4=O)C5=O)CC3)nc3c2CCN(c2cc(O)cc4ccccc24)C3)CC1 (stereo partly drawn) [compound 417, 5-(2-(2-((1-((R)-2-((4-(4-acryloylpiperazin-1-yl)-7-(3-hydroxynaphthalen-1-yl)-5,6,7,8-tetrahydropyrido[3,4-d]pyrimidin-2-yl)oxy)propyl)piperidin-4-yl)oxy)ethoxy)ethoxy)-2-(2,6 dioxopiperidin-3-yl)isoindoline-1,3-dione]	–	–	–	–
–	C (Percent Degradation: C ≤ 35)	C (Percent Degradation: C ≤ 35)	C (Percent Degradation: C ≤ 35)	Cc1ncsc1-c1ccc([C@H](C)NC(=O)[C@@H]2C[C@@H](O)CN2C(=O)[C@@H](NC(=O)COCCOCCOCCOCCO[C@@H]2C[C@@H](COc3nc4c(c(N5CCN(C(N)=O)[C@@H](CC#N)C5)n3)CCN(c3cccc5ccccc35)C4)N(C)C2)C(C)(C)C)cc1 [compound 537, (S)-2-(cyanomethyl)-4-(2-(((2S,4R)-4-(((S)-16-((2S,4R)-4-hydroxy-2-(((S)-1-(4-(4-methylthiazol-5-yl)phenyl)ethyl)carbamoyl)pyrrolidine-1-carbonyl)-17,17-dimethyl-14-oxo-3,6,9,12-tetraoxa-15-azaoctadecyl)oxy)-1-methylpyrrolidin-2-yl)methoxy)-7-(naphthalen-1-yl)-5,6,7,8-tetrahydropyrido[3,4-d]pyrimidin-4-yl)piperazine-1-carboxamide]	–	–	–	–
C (Percent Degradation: C ≤ 35)	C (Percent Degradation: C ≤ 35)	C (Percent Degradation: C ≤ 35)	–	C=CC(=O)N1CCN(c2nc(O[C@H](C)CN3CCC(OCCOCCOc4cc(-c5scnc5C)ccc4CNC(=O)[C@@H]4C[C@@H](O)CN4C(=O)[C@H](c4cc(C)no4)C(C)C)CC3)nc3c2CCN(c2cc(O)cc4ccccc24)C3)CC1 [compound 439, (2S,4R)-N-(2-(2-(2-((1-((R)-2-((4-(4-acryloylpiperazin-1-yl)-7-(3-hydroxynaphthalen-1-yl)-5,6,7,8-tetrahydropyrido[3,4-d]pyrimidin-2-yl)oxy)propyl)piperidin-4-yl)oxy)ethoxy)ethoxy)-4-(4-methylthiazol-5-yl)benzyl)-4-hydroxy-1-((S)-3-methyl-2-(3-methylisoxazol-5-yl)butanoyl)pyrrolidine-2-carboxamide]	–	–	–	–

Compound	Percent Degradation at Indicated Concentration (μM) (0.1 μM)	Percent Degradation at Indicated Concentration (μM) (0.3 μM)	Percent Degradation at Indicated Concentration (μM) (1 μM)	Percent Degradation at Indicated Concentration (μM) (3 μM)	Percent Degradation at Indicated Concentration (μM) (0.03 μM)	DC50 [nM]	Dmax [%]	Percent Degradation at Indicated Concentration (μM) (0.01 μM)
C=CC(=O)N1CCN(c2nc(O[C@H](C)CN3CCC(CN4CCN(CC(=O)N[C@H](C(=O)N5C[C@H](O)C[C@H]5C(=O)N[C@@H](C)c5ccc(-c6scnc6C)cc5)C(C)(C)C)CC4)CC3)nc3c(F)c(-c4cc(O)cc5ccccc45)c(Cl)cc23)CC1 [compound 403, (2S,4R)-1-((2S)-2-(2-(4-((1-((2R)-2-((4-(4-acryloylpiperazin-1-yl)-6-chloro-8-fluoro-7-(3-hydroxynaphthalen-1-yl)quinazolin-2-yl)oxy)propyl)piperidin-4-yl)methyl)piperazin-1-yl)acetamido)-3,3-dimethylbutanoyl)-4-hydroxy-N-((S)-1-(4-(4-methylthiazol-5-yl)phenyl)ethyl)pyrrolidine-2-carboxamide]	B (35 < B < 70)	B (35 < B < 70)	C (Percent Degradation: C ≤ 35)	–	B (35 < B < 70)	< 100	35 to 70	C (Percent Degradation: C ≤ 35)
